# Results: patent US20250243196A1, “CITRON KINASE INHIBITORS” (The Cleveland Clinic Foundation, priority 2021, published 2025)
# Experiments:
# Type in all cases: biochemical
# HIPK4 = HIPK4 (Homo sapiens (Human), UniProt Q8NE63); assay: KinaseProfiler radiometric assay (15-003KP); conditions: mean of at least two independent experiments
# Source text: In another aspect, disclosed is a method of inhibiting citron kinase in a sample, comprising contacting the sample with a compound described herein (e.g., a compound of formula (I) or a pharmaceutically acceptable salt thereof), or a pharmaceutical composition described herein (e.g., a pharmaceutical composition comprising a compound of formula (I) or a pharmaceutically acceptable salt thereof), in an amount effective to inhibit citron kinase. In some embodiments, the step of contacting the sample with the compound comprises administering the compound to a subject (e.g., a subject) suffering from cancer. Methods of determining kinase inhibition are well known in the art. For example, kinase activity of an enzyme and the inhibitory capacity of a test compound can be determined by measuring enzyme specific phosphorylation of a substrate. Commercial assays and kits can be employed. For example, kinase inhibition can be determined using a radiometric binding assay, such as using KinaseProfiler™ technology (Eurofins Discovery). This assay method directly detects product formation without the use of modified substrates or coupling enzymes. […]
# (§1) The effect of various compounds on the inhibition of other kinases has also been determined. Table 2 reports measured IC50 values; value units are nanomolar inhibition.
# PKAα = PKAα (Homo sapiens (Human), UniProt P17612); assay: KinaseProfiler radiometric assay (14-440KP); conditions: mean of at least two independent experiments
# Source text: In another aspect, disclosed is a method of inhibiting citron kinase in a sample, comprising contacting the sample with a compound described herein (e.g., a compound of formula (I) or a pharmaceutically acceptable salt thereof), or a pharmaceutical composition described herein (e.g., a pharmaceutical composition comprising a compound of formula (I) or a pharmaceutically acceptable salt thereof), in an amount effective to inhibit citron kinase. In some embodiments, the step of contacting the sample with the compound comprises administering the compound to a subject (e.g., a subject) suffering from cancer. Methods of determining kinase inhibition are well known in the art. For example, kinase activity of an enzyme and the inhibitory capacity of a test compound can be determined by measuring enzyme specific phosphorylation of a substrate. Commercial assays and kits can be employed. For example, kinase inhibition can be determined using a radiometric binding assay, such as using KinaseProfiler™ technology (Eurofins Discovery). This assay method directly detects product formation without the use of modified substrates or coupling enzymes. Test compounds are incubated with kinase, substrate, required cofactors and radioisotope labeled ATP. Following incubation, unreacted radioactive ATP is removed by washing and incorporation of the radiolabeled phosphate into the kinase substrate is assayed to detect phosphoryltransferase activity, which is directly proportional to the amount of phosphorylated substrate. Inhibition of the kinase by a kinase inhibitor prevents phosphorylation of the substrate and thereby limits the incorporation of radiolabeled phosphate. Such an assay is compatible with a microwell assay format, allowing simultaneous determination of IC50 of multiple compounds.
# as §1
# ALK2(h) = ALK2(h) (Homo sapiens (Human), UniProt Q04771); assay: KinaseProfiler panel; set-up: dose or concentration left out as unconfirmed; conditions: activity remaining
# AMPKα2(h) = AMPKα2(h) (Homo sapiens (Human), UniProt P54646); assay: KinaseProfiler panel; set-up: dose or concentration left out as unconfirmed; conditions: activity remaining
# CaMKI(h) = CaMKI(h) (Homo sapiens (Human), UniProt Q14012); assay: KinaseProfiler panel; set-up: dose or concentration left out as unconfirmed; conditions: activity remaining
# CDKL1(h) = CDKL1(h) (Homo sapiens (Human), UniProt Q00532); assay: KinaseProfiler panel; set-up: dose or concentration left out as unconfirmed; conditions: activity remaining
# CHK2(h) = CHK2(h) (Homo sapiens (Human), UniProt O96017); assay: KinaseProfiler panel; set-up: dose or concentration left out as unconfirmed; conditions: activity remaining
# Sequence of CHK2(h) (O96017 whole entry): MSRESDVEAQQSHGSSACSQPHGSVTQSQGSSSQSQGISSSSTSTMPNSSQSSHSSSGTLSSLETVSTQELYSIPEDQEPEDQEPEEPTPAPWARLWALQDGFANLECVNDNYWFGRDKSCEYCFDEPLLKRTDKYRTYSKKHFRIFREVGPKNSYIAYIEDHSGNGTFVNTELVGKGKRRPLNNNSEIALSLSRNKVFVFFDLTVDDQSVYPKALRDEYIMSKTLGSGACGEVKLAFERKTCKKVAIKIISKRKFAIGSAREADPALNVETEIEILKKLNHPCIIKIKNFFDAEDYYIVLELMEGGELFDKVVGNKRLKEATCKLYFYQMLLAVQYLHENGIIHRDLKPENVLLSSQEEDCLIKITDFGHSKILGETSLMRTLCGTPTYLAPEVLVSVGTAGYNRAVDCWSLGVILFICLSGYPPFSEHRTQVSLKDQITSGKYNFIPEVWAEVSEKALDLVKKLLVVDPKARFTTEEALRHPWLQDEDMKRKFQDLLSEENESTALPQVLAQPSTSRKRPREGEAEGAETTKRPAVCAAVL
# cSRC(h) = cSRC(h) (Homo sapiens (Human), UniProt P12931); assay: KinaseProfiler panel; set-up: dose or concentration left out as unconfirmed; conditions: activity remaining
# DAPK2(h) = DAPK2(h) (Homo sapiens (Human), UniProt Q9UIK4); assay: KinaseProfiler panel; conditions: activity remaining
# EphA8(h) = EphA8(h) (Homo sapiens (Human), UniProt P29322); assay: KinaseProfiler panel; set-up: dose or concentration left out as unconfirmed; conditions: activity remaining
# HIPK3(h) = HIPK3(h) (Homo sapiens (Human), UniProt Q9H422); assay: KinaseProfiler panel; set-up: dose or concentration left out as unconfirmed; conditions: activity remaining
# Itk(h) = Itk(h) (Homo sapiens (Human), UniProt Q08881); assay: KinaseProfiler panel; set-up: dose or concentration left out as unconfirmed; conditions: activity remaining
# JAK2(h) = JAK2(h) (Homo sapiens (Human), UniProt O60674); assay: KinaseProfiler panel; set-up: dose or concentration left out as unconfirmed; conditions: activity remaining
# Sequence of JAK2(h) (O60674 whole entry): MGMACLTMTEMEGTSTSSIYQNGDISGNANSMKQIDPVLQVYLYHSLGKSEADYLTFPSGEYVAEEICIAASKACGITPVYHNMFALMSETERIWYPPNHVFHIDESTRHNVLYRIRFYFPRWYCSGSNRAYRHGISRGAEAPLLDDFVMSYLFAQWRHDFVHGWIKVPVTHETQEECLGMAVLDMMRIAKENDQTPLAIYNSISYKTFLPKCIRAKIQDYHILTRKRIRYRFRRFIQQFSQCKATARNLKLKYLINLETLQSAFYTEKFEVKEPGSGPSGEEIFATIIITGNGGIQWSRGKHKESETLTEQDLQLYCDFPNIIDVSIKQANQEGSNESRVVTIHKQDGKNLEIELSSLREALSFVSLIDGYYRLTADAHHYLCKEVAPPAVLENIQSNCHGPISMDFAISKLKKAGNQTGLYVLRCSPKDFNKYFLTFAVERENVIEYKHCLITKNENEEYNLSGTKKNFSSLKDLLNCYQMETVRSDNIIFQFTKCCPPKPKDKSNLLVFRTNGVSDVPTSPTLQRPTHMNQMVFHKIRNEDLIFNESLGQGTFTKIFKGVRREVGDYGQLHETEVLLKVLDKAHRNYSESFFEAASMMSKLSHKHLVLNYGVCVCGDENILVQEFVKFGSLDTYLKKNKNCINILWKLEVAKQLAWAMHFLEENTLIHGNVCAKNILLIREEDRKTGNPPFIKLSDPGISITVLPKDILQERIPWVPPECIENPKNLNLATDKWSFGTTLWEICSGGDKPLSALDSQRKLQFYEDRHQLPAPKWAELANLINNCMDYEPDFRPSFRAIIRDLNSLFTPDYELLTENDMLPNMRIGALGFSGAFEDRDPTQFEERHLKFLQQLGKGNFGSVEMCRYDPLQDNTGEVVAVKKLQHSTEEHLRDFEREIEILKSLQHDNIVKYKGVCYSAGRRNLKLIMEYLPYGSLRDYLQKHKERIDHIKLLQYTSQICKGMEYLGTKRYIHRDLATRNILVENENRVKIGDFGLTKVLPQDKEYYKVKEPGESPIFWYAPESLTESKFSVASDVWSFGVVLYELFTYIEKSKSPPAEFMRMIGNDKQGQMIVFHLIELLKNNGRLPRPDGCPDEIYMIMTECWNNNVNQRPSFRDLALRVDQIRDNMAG
# MAPKAP-K3(h) = MAPKAP-K3(h) (Homo sapiens (Human), UniProt Q16644); assay: KinaseProfiler panel; set-up: dose or concentration left out as unconfirmed; conditions: activity remaining
# MSSK1(h) = MSSK1(h) (Homo sapiens (Human), UniProt Q9UPE1); assay: KinaseProfiler panel; conditions: activity remaining
# NEK7(h) = NEK7(h) (Homo sapiens (Human), UniProt Q8TDX7); assay: KinaseProfiler panel; set-up: dose or concentration left out as unconfirmed; conditions: activity remaining
# OSR1(h) = OSR1(h) (Homo sapiens (Human), UniProt O95747); assay: KinaseProfiler panel; set-up: dose or concentration left out as unconfirmed; conditions: activity remaining
# Sequence of OSR1(h) (O95747 whole entry): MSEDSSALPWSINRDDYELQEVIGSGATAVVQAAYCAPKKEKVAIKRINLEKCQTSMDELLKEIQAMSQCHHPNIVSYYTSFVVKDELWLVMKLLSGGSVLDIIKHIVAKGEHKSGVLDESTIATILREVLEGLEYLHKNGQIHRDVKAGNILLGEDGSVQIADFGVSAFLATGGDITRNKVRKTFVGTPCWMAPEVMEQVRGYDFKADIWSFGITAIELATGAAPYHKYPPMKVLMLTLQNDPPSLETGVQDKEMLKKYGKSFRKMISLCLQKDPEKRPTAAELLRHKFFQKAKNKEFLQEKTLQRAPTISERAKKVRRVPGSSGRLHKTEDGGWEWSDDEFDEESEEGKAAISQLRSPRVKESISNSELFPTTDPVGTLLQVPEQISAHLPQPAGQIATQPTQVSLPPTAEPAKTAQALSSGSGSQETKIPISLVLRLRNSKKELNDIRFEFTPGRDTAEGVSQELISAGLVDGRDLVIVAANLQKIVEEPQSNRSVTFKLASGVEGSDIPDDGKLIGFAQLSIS
# PAK4(h) = PAK4(h) (Homo sapiens (Human), UniProt O96013); assay: KinaseProfiler panel; set-up: dose or concentration left out as unconfirmed; conditions: activity remaining
# Sequence of PAK4(h) (O96013 whole entry): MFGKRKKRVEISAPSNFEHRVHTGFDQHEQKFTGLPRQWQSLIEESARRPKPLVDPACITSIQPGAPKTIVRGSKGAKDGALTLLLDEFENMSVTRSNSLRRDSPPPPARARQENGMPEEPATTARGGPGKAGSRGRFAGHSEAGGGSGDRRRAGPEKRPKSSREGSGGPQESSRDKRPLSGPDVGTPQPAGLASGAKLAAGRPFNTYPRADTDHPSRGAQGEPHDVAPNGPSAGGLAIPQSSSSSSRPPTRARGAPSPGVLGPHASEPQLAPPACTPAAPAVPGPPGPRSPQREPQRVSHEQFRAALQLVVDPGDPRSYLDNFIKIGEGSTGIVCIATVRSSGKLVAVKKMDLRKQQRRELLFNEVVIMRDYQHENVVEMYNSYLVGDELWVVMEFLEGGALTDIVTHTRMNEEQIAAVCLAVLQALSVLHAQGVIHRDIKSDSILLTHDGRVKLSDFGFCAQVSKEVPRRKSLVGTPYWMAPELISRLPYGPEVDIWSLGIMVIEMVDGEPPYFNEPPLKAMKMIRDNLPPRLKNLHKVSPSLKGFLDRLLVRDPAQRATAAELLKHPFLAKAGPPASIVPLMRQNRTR
# PDGFRβ(h) = PDGFRβ(h) (Homo sapiens (Human), UniProt P09619); assay: KinaseProfiler panel; set-up: dose or concentration left out as unconfirmed; conditions: activity remaining
# [1] = target: PI3 Kinase (p110b/p85a)(h) (Homo sapiens (Human), UniProt P42338); assay: KinaseProfiler panel; set-up: dose or concentration left out as unconfirmed; conditions: activity remaining
# SIK3(h) = SIK3(h) (Homo sapiens (Human), UniProt Q9Y2K2); assay: KinaseProfiler panel; set-up: dose or concentration left out as unconfirmed; conditions: activity remaining
# TrkA(h) = TrkA(h) (Homo sapiens (Human), UniProt P04629); assay: KinaseProfiler panel; set-up: dose or concentration left out as unconfirmed; conditions: activity remaining
# TSSK3(h) = TSSK3(h) (Homo sapiens (Human), UniProt Q96PN8); assay: KinaseProfiler panel; set-up: dose or concentration left out as unconfirmed; conditions: activity remaining
# Sequence of TSSK3(h) (Q96PN8 whole entry): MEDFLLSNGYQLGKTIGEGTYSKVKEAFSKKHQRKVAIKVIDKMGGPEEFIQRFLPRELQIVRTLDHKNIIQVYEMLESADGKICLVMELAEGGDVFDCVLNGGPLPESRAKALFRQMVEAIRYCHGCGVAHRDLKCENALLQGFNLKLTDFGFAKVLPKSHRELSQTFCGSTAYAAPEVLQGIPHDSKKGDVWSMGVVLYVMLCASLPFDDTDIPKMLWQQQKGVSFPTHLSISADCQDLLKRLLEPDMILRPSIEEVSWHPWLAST
# TYK2(h) = TYK2(h) (Homo sapiens (Human), UniProt P29597); assay: KinaseProfiler panel; set-up: dose or concentration left out as unconfirmed; conditions: activity remaining
# ULK3(h) = ULK3(h) (Homo sapiens (Human), UniProt Q6PHR2); assay: KinaseProfiler panel; set-up: dose or concentration left out as unconfirmed; conditions: activity remaining
# Sequence of ULK3(h) (Q6PHR2 whole entry): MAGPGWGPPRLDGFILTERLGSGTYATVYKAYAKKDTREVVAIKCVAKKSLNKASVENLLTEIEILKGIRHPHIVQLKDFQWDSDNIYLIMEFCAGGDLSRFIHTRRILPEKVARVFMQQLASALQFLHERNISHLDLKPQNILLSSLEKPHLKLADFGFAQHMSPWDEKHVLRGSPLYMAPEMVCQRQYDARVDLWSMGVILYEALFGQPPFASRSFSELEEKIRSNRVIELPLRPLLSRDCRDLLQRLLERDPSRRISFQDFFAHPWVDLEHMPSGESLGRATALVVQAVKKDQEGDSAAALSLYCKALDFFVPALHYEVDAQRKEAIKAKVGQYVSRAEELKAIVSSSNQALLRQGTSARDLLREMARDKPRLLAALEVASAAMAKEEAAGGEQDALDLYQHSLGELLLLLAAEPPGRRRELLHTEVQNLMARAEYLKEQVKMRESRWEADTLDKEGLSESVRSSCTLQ
# WNK4(h) = WNK4(h) (Homo sapiens (Human), UniProt Q96J92); assay: KinaseProfiler panel; set-up: dose or concentration left out as unconfirmed; conditions: activity remaining
# Sequence of WNK4(h) (Q96J92 whole entry): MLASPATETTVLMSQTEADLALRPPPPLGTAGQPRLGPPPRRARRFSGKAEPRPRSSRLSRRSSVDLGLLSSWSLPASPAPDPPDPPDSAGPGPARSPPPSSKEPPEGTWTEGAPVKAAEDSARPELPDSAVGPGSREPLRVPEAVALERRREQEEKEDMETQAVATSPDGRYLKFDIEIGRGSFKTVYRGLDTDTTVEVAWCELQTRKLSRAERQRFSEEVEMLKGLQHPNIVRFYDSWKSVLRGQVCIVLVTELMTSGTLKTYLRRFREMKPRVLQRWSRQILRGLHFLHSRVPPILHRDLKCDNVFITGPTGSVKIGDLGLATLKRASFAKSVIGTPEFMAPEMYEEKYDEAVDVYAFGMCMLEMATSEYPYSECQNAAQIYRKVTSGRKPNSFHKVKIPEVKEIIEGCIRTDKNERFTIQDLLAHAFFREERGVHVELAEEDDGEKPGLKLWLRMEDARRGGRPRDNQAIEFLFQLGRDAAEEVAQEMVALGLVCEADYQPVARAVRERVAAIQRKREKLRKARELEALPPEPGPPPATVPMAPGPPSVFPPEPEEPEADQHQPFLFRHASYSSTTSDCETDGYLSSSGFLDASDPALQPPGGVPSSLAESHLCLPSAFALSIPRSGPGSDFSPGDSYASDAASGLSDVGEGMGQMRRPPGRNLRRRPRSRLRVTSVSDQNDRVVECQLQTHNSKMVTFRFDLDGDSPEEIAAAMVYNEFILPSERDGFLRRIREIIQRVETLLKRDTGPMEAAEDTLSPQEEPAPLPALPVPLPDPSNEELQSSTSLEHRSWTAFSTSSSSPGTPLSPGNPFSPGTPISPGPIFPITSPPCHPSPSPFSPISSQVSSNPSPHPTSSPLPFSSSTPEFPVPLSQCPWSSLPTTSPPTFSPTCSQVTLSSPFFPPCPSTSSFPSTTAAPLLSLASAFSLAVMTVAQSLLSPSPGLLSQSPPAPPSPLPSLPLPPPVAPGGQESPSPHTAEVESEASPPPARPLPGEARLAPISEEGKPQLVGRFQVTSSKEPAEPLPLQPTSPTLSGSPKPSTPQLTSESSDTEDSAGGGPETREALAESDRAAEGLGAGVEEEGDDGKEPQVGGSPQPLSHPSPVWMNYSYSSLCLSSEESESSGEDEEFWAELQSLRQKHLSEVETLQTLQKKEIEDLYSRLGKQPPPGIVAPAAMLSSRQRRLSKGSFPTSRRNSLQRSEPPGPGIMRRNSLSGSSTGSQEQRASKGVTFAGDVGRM
compound,measurement,setting,value
"Cc1cc2c(-c3ccc(NC(=O)[C@H](N)CC(C)(C)C)cc3C)ccnc2[nH]1 [Compound F-90, (2R)-2-Amino-4,4-dimethyl-N-[3-methyl-4-(2-methyl-1H-pyrrolo[2,3-b]pyridin-4-yl)phenyl]pentanamide]",IC50,HIPK4,2280 nM
same,IC50,PKAα,> 3000 nM
same,% Activity,ALK2(h),122%
same,% Activity,AMPKα2(h),117%
same,% Activity,CaMKI(h),104%
same,% Activity,CDKL1(h),99%
same,% Activity,CHK2(h),95%
same,% Activity,cSRC(h),93%
same,% Activity,DAPK2(h),109%
same,% Activity,EphA8(h),115%
same,% Activity,HIPK3(h),85%
same,% Activity,Itk(h),86%
same,% Activity,JAK2(h),104%
same,% Activity,MAPKAP-K3(h),125%
same,% Activity,MSSK1(h),134%
same,% Activity,NEK7(h),88%
same,% Activity,OSR1(h),80%
same,% Activity,PAK4(h),83%
same,% Activity,PDGFRβ(h),105%
same,% Activity,[1],102%
same,% Activity,SIK3(h),105%
same,% Activity,TrkA(h),105%
same,% Activity,TSSK3(h),96%
same,% Activity,TYK2(h),103%
same,% Activity,ULK3(h),95%
same,% Activity,WNK4(h),97%
